Our source for the Km and Vmax values is US9512459B2 (priority 2011, dated 2016).

Assay [1] deals with Sclerotinia sclerotiorum glucose dehydrogenase (FAD-GDH) Ssc-n1, wild type, SEQ ID NO: 1 (16 N-terminal residues deleted, Ser17 substituted by Met) (Sclerotinia sclerotiorum, UniProt A7F9L2). As to the kind of experiment: GDH activity vs glucose, saturation curve (Ssc-n1). Format: biochemical. Conditions: crude enzyme, glucose 1-40 mM, pH 6.5, DCIP/PMS. On the procedure:
(§1) The transformant BL21 (DE3) expressing each mutated enzyme was precultured. The transformant was inoculated in an amount of 1% with respect to 60 ml of a medium A using a 300-ml baffled flask and shake-cultured under conditions involving 20° C., 28 hours, and 125 rpm. After collection of 50 ml of the medium, the bacterial cells were suspended by the addition of BugBuster (registered trademark) protein extraction reagent (Novagen/Merck KGaA) at a ratio of 5 ml per g of wet cells and incubated at room temperature for 15 minutes with gentle shaking. Insoluble fractions were removed by centrifugation (15 Krpm, 4° C., 20 minutes). Then, the obtained supernatant was dialyzed overnight at 4° C. against a 20 mM potassium phosphate buffer solution (pH 6.5). After the completion of the dialysis, the dialysate was centrifuged, and the supernatant was used as a crude enzyme preparation. Insoluble fractions were suspended in a 20 mM potassium phosphate buffer solution (pH 6.5) at a ratio of 1 ml per 2 ml of the suspension containing the insoluble fractions.
A small-scale expression system was used for some multiple-mutated enzymes. The transformant BL21 (DE3) expressing each mutated enzyme was precultured, and the transformant was inoculated in an amount of 1 vol % with respect to 3 ml of a medium A. The bacterial cells were shake-cultured at 37° C. for 4 hours and then shake-cultured at 20° C. for 20 hours. After the culture, 2 ml of the medium was collected, then suspended by the addition of 400 μl of BugBuster (registered trademark), and then shaken at room temperature for 15 minutes. Then, the suspension was centrifuged (15000 rpm, 4° C., 20 minutes), and the obtained supernatant was used as a crude enzyme preparation.
(§2) The GDH activity was measured in a DCIP (0.3 mM)/PMS (0.6 mM) system using a 20 mM potassium phosphate buffer solution (pH 6.5) as a buffer solution and glucose (Glc; 1, 2, 4, 10, 20, and 40 mM) and xylose (Xyl; 4 and 40 mM) as substrates.
(§3) The numeric values in the tables represent a mean of several data about specific activity (U/mg) and productivity (U/L) obtained under the same conditions with 40 mM glucose as a substrate. The obtained crude enzyme preparation was used to observe the correlation between the concentration of the substrate (glucose; 1, 2, 4, 10, 20, and 40 mM) and the activity. The obtained Michaelis-Menten constant (Km value) and apparent maximum activity (Vmax) were determined from a saturation curve determined therefrom.

The target in assay [2] is T1, Aspergillus niger glucose dehydrogenase (FAD-GDH) Ang-n1, wild type, SEQ ID NO: 2 (20 N-terminal residues deleted, Ala21 substituted by Met) (Aspergillus niger, UniProt A2QWL1).
T1 construct: pET30c, E. coli BL21(DE3), crude extract
T1 sequence (A2QWL1 with tags, fused parts or gaps): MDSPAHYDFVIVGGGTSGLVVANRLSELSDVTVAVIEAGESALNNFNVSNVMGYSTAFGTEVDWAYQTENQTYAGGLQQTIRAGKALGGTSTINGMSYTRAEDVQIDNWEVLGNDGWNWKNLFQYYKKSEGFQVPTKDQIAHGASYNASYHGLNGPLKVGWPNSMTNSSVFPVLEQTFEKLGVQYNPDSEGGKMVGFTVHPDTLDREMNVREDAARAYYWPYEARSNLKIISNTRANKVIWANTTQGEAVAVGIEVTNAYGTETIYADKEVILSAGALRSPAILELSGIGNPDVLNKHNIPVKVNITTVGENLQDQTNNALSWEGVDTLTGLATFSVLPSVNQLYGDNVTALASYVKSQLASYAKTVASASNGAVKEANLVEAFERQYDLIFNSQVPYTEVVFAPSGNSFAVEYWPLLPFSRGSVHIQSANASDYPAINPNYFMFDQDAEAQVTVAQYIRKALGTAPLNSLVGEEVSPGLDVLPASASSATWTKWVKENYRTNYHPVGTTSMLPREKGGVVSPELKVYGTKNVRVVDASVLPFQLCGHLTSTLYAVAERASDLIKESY
As to the kind of experiment: GDH activity vs glucose, saturation curve (Ang-n1). Type of assay: biochemical. To be noted: 60 ml culture, crude enzyme; glucose 1-40 mM, pH 6.5, DCIP/PMS. On the procedure: as §1, with “After the completion of the dialysis, the dialysate was centrifuged, and the supernatant was used as a crude enzyme preparation. Insoluble fractions were suspended in a 20 mM potassium phosphate buffer solution (pH 6.5) at a ratio of 1 ml per 2 ml of the suspension containing the insoluble fractions.” left out
as §2
(§4) The numeric values in the tables represent a mean of several data about specific activity (U/mg) and productivity (U/L) obtained under the same conditions with 40 mM glucose as a substrate. […] The obtained Michaelis-Menten constant (Km value) and apparent maximum activity (Vmax) were determined from a saturation curve determined therefrom.

Assay [3] has as its target Sclerotinia sclerotiorum glucose dehydrogenase (FAD-GDH) Ssc-n4 variant N191K/S529G, SEQ ID NO: 1 (Sclerotinia sclerotiorum, UniProt A7F9L2, N191K/S529G). To be noted: 60 ml culture, crude enzyme; glucose 1-40 mM, pH 6.5, DCIP/PMS. On the procedure: as §1, §2, §3
The target of assay [4] is Sclerotinia sclerotiorum glucose dehydrogenase (FAD-GDH) Ssc-n3 variant N191K/S529G, SEQ ID NO: 1 (Sclerotinia sclerotiorum, UniProt A7F9L2, N191K/S529G). To be noted: 60 ml culture, crude enzyme; glucose 1-40 mM, pH 6.5, DCIP/PMS. On the procedure:
as §1, §2, §3

Assay [5] has as its target Sclerotinia sclerotiorum glucose dehydrogenase (FAD-GDH) Ssc-n2 variant N191E/S529G, SEQ ID NO: 1 (Sclerotinia sclerotiorum, UniProt A7F9L2, N191E/S529G). Conditions: 60 ml culture, crude enzyme; glucose 1-40 mM, pH 6.5, DCIP/PMS. On the procedure: as §1, §2, §3
The target of assay [6] is T2, Aspergillus niger glucose dehydrogenase (FAD-GDH) Ang-n2, SEQ ID NO: 2 (26 N-terminal residues deleted, Met-Thr-Asp-Ser-Thr-Leu-Asn added) (Aspergillus niger, UniProt A2QWL1).
T2 construct: pET30c, E. coli BL21(DE3), crude extract or purified (T9)
T2 sequence (A2QWL1 27-588): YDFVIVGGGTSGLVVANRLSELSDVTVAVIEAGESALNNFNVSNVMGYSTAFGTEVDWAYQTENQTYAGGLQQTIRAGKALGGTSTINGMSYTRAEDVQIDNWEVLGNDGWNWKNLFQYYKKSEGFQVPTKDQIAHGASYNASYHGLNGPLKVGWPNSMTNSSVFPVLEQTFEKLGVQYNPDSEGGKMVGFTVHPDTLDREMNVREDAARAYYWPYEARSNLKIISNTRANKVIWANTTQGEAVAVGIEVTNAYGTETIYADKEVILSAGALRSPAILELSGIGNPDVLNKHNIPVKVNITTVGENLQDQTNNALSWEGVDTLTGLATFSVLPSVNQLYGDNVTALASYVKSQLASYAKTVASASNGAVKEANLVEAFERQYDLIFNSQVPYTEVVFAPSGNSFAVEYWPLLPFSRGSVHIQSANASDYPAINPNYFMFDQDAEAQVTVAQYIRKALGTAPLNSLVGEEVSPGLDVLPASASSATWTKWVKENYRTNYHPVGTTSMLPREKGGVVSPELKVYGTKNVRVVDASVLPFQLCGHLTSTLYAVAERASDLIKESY
As to the kind of experiment: GDH activity vs glucose, saturation curve (Ang-n2). Format: biochemical. Conditions: crude enzyme, glucose 1-40 mM, pH 6.5, DCIP/PMS. On the procedure: as §1, with “After the completion of the dialysis, the dialysate was centrifuged, and the supernatant was used as a crude enzyme preparation. Insoluble fractions were suspended in a 20 mM potassium phosphate buffer solution (pH 6.5) at a ratio of 1 ml per 2 ml of the suspension containing the insoluble fractions.” left out
as §2, §4

For orientation: Km means the concentration of substrate that gives half-maximal velocity. For `OC[C@H]1OC(O)[C@H](O)[C@@H](O)[C@@H]1O` (stereo partly shown) [glucose], the figures for the Km in assay [1] (3 ml culture) and in assay [1] (60 ml culture) were 14.3 mM and 16.6 mM, respectively. Moreover, the Vmax in assay [1] (3 ml culture) is reported as 2.2 U/mg protein; in assay [1] (60 ml culture) it was 0.7 U/mg protein; in assay [2], 0.2 U/mg protein; in assay [3], 9.2 U/mg protein; in assay [4] it was 6.9 U/mg protein; in assay [5] it was 20.2 U/mg protein. The Vmax in assay [6] (3 ml culture (Table 8)) and in assay [6] (60 ml culture) was 1.5 U/mg protein each time.
